Measured values taken from patent publication US20070128217A1 (priority 2003, published 2007).

Experiments:
[1] = tested on: antibodies in sera from SARS patients (sera 1a, 1b, 2, 6, 37, 62, London, SARS-yellow, SARS-green); type: binding, human; parameters: Binding of serum 6 to linear peptides of protein X1 of SARS-CoV Urbani / Binding of serum 37 to linear peptides of protein X1 of SARS-CoV Urbani / Binding of serum 6 to looped/cyclic peptide (PEPSCAN-ELISA) / Binding of serum 37 to looped/cyclic peptide (PEPSCAN-ELISA) / Binding of serum 37 to looped/cyclic peptides of protein X1 of SARS-CoV Urbani / Binding of serum 6 to linear peptides of protein X2 / Binding of serum 37 to linear peptides of protein X2 / Binding of serum 37 to looped/cyclic peptides of protein X2 of SARS-CoV Urbani / Binding of serum 6 to linear peptides of protein M of SARS-CoV Urbani / Binding of serum 37 to linear peptides of protein M of SARS-CoV Urbani / Binding of serum 6 to looped/cyclic peptides of protein M of SARS-CoV Urbani / Binding of serum 37 to looped/cyclic peptides of protein M of SARS-CoV Urbani / Binding of serum 6 to linear peptides of protein X3 of SARS-CoV Urbani / Binding of serum 37 to linear peptides of protein X3 of SARS-CoV Urbani / Binding of serum 37 to looped/cyclic peptides of protein X3 of SARS-CoV Urbani / Binding of serum 6 to linear peptides of protein X4 of SARS-CoV Urbani / Binding of serum 37 to linear peptides of protein X4 of SARS-CoV Urbani / Binding of serum 37 to looped/cyclic peptides of protein X4 of SARS-CoV Urbani / Binding of serum 6 to linear peptides of protein X5 of SARS-CoV Urbani / Binding of serum 37 to linear peptides of protein X5 of SARS-CoV Urbani / Binding of serum 37 to looped/cyclic peptides of protein X5 of SARS-CoV Urbani / Binding of serum 6 to linear peptides of protein N of SARS-CoV Urbani / Binding of serum 37 to linear peptides of protein N of SARS-CoV Urbani / Binding of serum 6 to linear peptide (PEPSCAN-ELISA) / Binding of serum 1a to looped/cyclic peptides of protein N of SARS-CoV Urbani / Binding of serum 1b to looped/cyclic peptides of protein N of SARS-CoV Urbani / Binding of serum 2 to looped/cyclic peptides of protein N of SARS-CoV Urbani / Binding of serum 6 to looped/cyclic peptides of protein N of SARS-CoV Urbani / Binding of serum 37 to looped/cyclic peptides of protein N of SARS-CoV Urbani / Binding of serum 62 to looped/cyclic peptides of protein N of SARS-CoV Urbani / Binding of serum London to looped/cyclic peptides of protein N of SARS-CoV Urbani / Binding of serum SARS-green to looped/cyclic peptides of protein N of SARS-CoV Urbani: unit not given here
[2] = tested on: control sera (pooled serum of ten healthy LUMC hospital workers; commercial negative donor pooled serum from the Dutch bloodbank); type: binding, human; parameters: Binding of Control serum LUMC to linear peptides / Binding of Control serum Blood-bank to linear peptides / Binding of Control serum LUMC to looped peptides / Binding of Control Serum Blood-Bank to Looped peptides / Binding of Control serum LUMC to linear peptides of the protein M of SARS-CoV Urbani / Binding of Control serum Blood-bank to linear peptides of the protein M of SARS-CoV Urbani / Binding of Control serum LUMC to looped peptides of the protein M of SARS-CoV Urbani / Binding of Control Serum Blood-Bank to Looped peptides of the protein M of SARS-CoV Urbani: unit not given here
[3] = tested on: rabbit serum obtained by immunizing a rabbit with the SARS-CoV strain Frankfurt 1; type: binding; parameters: Binding of a rabbit serum to linear peptides / Binding of a rabbit serum to looped peptides / Rabbit serum linear peptides / Rabbit serum looped peptides / Binding of a rabbit serum to linear peptides of protein N of SARS-CoV Urbani (Rabbit serum linear peptides) / Binding of a rabbit serum to looped/cyclic peptides of protein N of SARS-CoV Urbani (Rabbit serum looped peptides): unit not given here
[4] = tested on: recombinant human anti-SARS-CoV antibody 03-018; type: binding; parameters: Binding of antibody 03-018 to linear peptides of the N protein of SARS-CoV Urbani / Binding of antibody 03-018 to looped/cyclic peptides of the N protein of SARS-CoV Urbani: unit not given here

## EGALNTPKDHIGTRN
[1]
  Binding of serum 1a to linear peptides of protein N of SARS-CoV Urbani: 0.2
  Binding of serum 1a to looped/cyclic peptides of protein N of SARS-CoV Urbani: 0.3
  Binding of serum 1b to linear peptides of protein N of SARS-CoV Urbani: 0.1
  Binding of serum 1b to looped/cyclic peptides of protein N of SARS-CoV Urbani: 0.2
  Binding of serum 2 to linear peptides of protein N of SARS-CoV Urbani: 0.2
  Binding of serum 2 to looped/cyclic peptides of protein N of SARS-CoV Urbani: 0.5
  Binding of serum 6 to linear peptides of protein N of SARS-CoV Urbani: 0.2
  Binding of serum 6 to looped/cyclic peptides of protein N of SARS-CoV Urbani: 0.3
  Binding of serum 37 to linear peptides of protein N of SARS-CoV Urbani: 0.6
  Binding of serum 37 to looped/cyclic peptides of protein N of SARS-CoV Urbani: 0.6
  Binding of serum 62 to linear peptides of protein N of SARS-CoV Urbani: 0.6
  Binding of serum 62 to looped/cyclic peptides of protein N of SARS-CoV Urbani: 0.3
  Binding of serum London to linear peptides of protein N of SARS-CoV Urbani: 0.6
  Binding of serum London to looped/cyclic peptides of protein N of SARS-CoV Urbani: 0.5
  Binding of serum SARS-green to linear peptides of protein N of SARS-CoV Urbani: 0.1
  Binding of serum SARS-green to looped/cyclic peptides of protein N of SARS-CoV Urbani: 0.4
  Binding of serum SARS-yellow to linear peptides of protein N of SARS-CoV Urbani: 0.5
  Binding of serum SARS-yellow to looped/cyclic peptides of protein N of SARS-CoV Urbani: 0.2
[2]
  Binding of Control Serum Blood-Bank to Looped peptides: 0.7
  Binding of Control serum Blood-bank to linear peptides: 0.7
  Binding of Control serum LUMC to linear peptides: 0.6
  Binding of Control serum LUMC to looped peptides: 0.5
[3]
  Binding of a rabbit serum to linear peptides of protein N of SARS-CoV Urbani (Rabbit serum linear peptides): 0.1
  Binding of a rabbit serum to looped/cyclic peptides of protein N of SARS-CoV Urbani (Rabbit serum looped peptides): 0.0
[4]
  Binding of antibody 03-018 to linear peptides of the N protein of SARS-CoV Urbani: 0.1
  Binding of antibody 03-018 to looped/cyclic peptides of the N protein of SARS-CoV Urbani: 0.3

## PQIAQFAPSASAFFG
[1]
  Binding of serum 1a to linear peptides of protein N of SARS-CoV Urbani: 0.2
  Binding of serum 1a to looped/cyclic peptides of protein N of SARS-CoV Urbani: 0.4
  Binding of serum 1b to linear peptides of protein N of SARS-CoV Urbani: 0.1
  Binding of serum 1b to looped/cyclic peptides of protein N of SARS-CoV Urbani: 0.3
  Binding of serum 2 to linear peptides of protein N of SARS-CoV Urbani: 0.2
  Binding of serum 2 to looped/cyclic peptides of protein N of SARS-CoV Urbani: 0.4
  Binding of serum 6 to linear peptides of protein N of SARS-CoV Urbani: 0.1
  Binding of serum 6 to looped/cyclic peptides of protein N of SARS-CoV Urbani: 0.3
  Binding of serum 37 to linear peptides of protein N of SARS-CoV Urbani: 0.6
  Binding of serum 37 to looped/cyclic peptides of protein N of SARS-CoV Urbani: 0.7
  Binding of serum 62 to linear peptides of protein N of SARS-CoV Urbani: 0.6
  Binding of serum 62 to looped/cyclic peptides of protein N of SARS-CoV Urbani: 0.7
  Binding of serum London to linear peptides of protein N of SARS-CoV Urbani: 0.5
  Binding of serum London to looped/cyclic peptides of protein N of SARS-CoV Urbani: 0.5
  Binding of serum SARS-green to linear peptides of protein N of SARS-CoV Urbani: 0.6
  Binding of serum SARS-green to looped/cyclic peptides of protein N of SARS-CoV Urbani: 0.4
  Binding of serum SARS-yellow to linear peptides of protein N of SARS-CoV Urbani: 0.6
  Binding of serum SARS-yellow to looped/cyclic peptides of protein N of SARS-CoV Urbani: 0.5
[2]
  Control Serum Blood-Bank Looped peptides: 0.8
  Control serum Blood-bank linear peptides: 0.7
  Control serum LUMC linear peptides: 0.5
  Control serum LUMC looped peptides: 0.7
[3]
  Binding of a rabbit serum to linear peptides of protein N of SARS-CoV Urbani (Rabbit serum linear peptides): 0.1
  Binding of a rabbit serum to looped/cyclic peptides of protein N of SARS-CoV Urbani (Rabbit serum looped peptides): 0.5
[4]
  Binding of antibody 03-018 to linear peptides of the N protein of SARS-CoV Urbani: 0.1
  Binding of antibody 03-018 to looped/cyclic peptides of the N protein of SARS-CoV Urbani: 0.2
